Results taken from US20070167387A1, “Novel artificial nucleic acids of n-o bond crosslinkage type” (TAKESHI IMANISHI, priority 2003, published 2007).

What was measured:
Assay type in all cases: binding
[1] = tested on: DNA strand (5′-AGCAAAAAACGC-3′); assay: Melting point (Tm) measurement, duplex-forming capacity with DNA strand; settings: 100 mM NaCl, 10 mM Na2HPO4 buffer (pH7.2), [strand] = 4 μM, average of 3 or more experiments
Method: (§1) The oligonucleotide analogues (1) to (5) and (13) to (17) synthesized in the Examples (i.e., antisense strands), and a sense strand of a natural DNA or RNA oligonucleotide were annealed. The melting points (Tm) of the annealing products were measured to investigate the duplex-forming capacity of the antisense strands.
(§2) Sample solutions (500 μL) with end concentrations of NaCl 100 mM, sodium phosphate buffer (pH 7.2) 10 mM, antisense strand 4 μM, and sense strand 4 μM were bathed in boiling water, and cooled down to room temperature over the course of 10 hours. A stream of nitrogen was flowed through a cell chamber of a spectrophotometer (Beckman, DU-650) to prevent dew formation, and the sample solutions were gradually cooled down to 5° C. Further, the sample solutions were maintained at 10° C. for 20 minutes, and then their measurements were started. The temperature was raised up to 90° C. at a rate of 0.5° C./min, and the ultraviolet absorption at 260 nm was measured.

[2] = tested on: RNA strand (5′-AGCAAAAAACGC-3′); assay: Melting point (Tm) measurement, duplex-forming capacity with RNA strand; settings: 100 mM NaCl, 10 mM Na2HPO4 buffer (pH7.2), [strand] = 4 μM, average of 3 or more experiments
Method: as §1, §2

[3] = tested on: dsDNA 5′-d(GCT AAAAAGAAAGAGAGATCG)-3′ / 3′-d(CGATTTTTCTTTCTCTCTAGC)-5′; assay: Tm measurement, triplex-forming capacity with dsDNA (Table 5-1); settings: 140 mM KCl, 7 mM Na2HPO4 buffer (pH 7.0), each strand 1.5 μM
Method: as §2
(§3) In connection with the oligonucleotide analogues (6) to (11) and (18) to (21) synthesized in the Examples, the triplex-forming capacity with the target double-stranded DNA's indicated below was investigated by the same method as in Experimental Example 1. The salt concentrations and pH during measurement complied with the conditions described below the respective tables.

[4] = tested on: dsDNA 5′-d(GCTGCT AAAAAGAAAGAGAGATCGTCG)-3′ / 3′-d(CGACGATTTTTCTTTCTCTCTAGCAGC)-5′; assay: Tm measurement, triplex-forming capacity with dsDNA, with MgCl2 (Table 5-2); settings: 140 mM KCl, 10 mM MgCl2, 7 mM Na2HPO4 buffer (pH 7.0), each strand 1.5 μM
Method: as §2, §3

[5] = tested on: dsDNA 5′-d([…])-3′ / 3′-d(CGATTTTTCTNTCTCTCTAGC)-5′; assay: Sequence selective triplex-formation, match and mismatch dsDNA (Table 5-3); settings: for Tm: 140 mM KCl, 7 mM sodium phosphate buffer (pH 7.0), each strand 1.5 μM
Method: as §2, §3

| Substance | Tm [3] [°C] | Tm [4] [°C] | ΔTm/modification [3] | ΔTm/modification [4] | also measured |
| --- | --- | --- | --- | --- | --- |
| 5′-GCGTTTTTTGCT-3′ (unmodified DNA) [natural antisense strand, reference compound] |  |  |  |  | Tm [1]: 50 °C; Tm [2]: 45 °C |
| 5′-TTTTT^mCTTT^mCT^mCT^mCT-3′ (TTTTTCTTTCTCTCT; all C 5-methyl, sugars by position and backbone not given here) [unmodified triplex-forming oligonucleotide, Z = natural T, reference compound] | 33 | 43 |  |  | Tm ([5]; M·N = A·T (match)): 43 °C; ΔTm = Tm(mismatch) − Tm(match) ([5]; M·N = C·G): −18 °C; Tm ([5]; M·N = C·G (mismatch)): 25 °C; ΔTm = Tm(mismatch) − Tm(match) ([5]; M·N = G·C): −22 °C; Tm ([5]; M·N = G·C (mismatch)): 21 °C; ΔTm = Tm(mismatch) − Tm(match) ([5]; M·N = T·A): −25 °C; Tm ([5]; M·N = T·A (mismatch)): 18 °C |
| 5′-TTTTT^mCYYY^mCT^mCT^mCT-3′ [Oligonucleotide analogue (20)] | 59 | 71 | +8.7 °C | +9.3 °C |  |
| 5′-TTTTX^mCTXT^mCX^mCT^mCT-3′ [Oligonucleotide analogue (7)] | 47 | 61 | +4.6 °C | +6.0 °C |  |
| 5′-TTTTY^mCTYT^mCY^mCT^mCT-3′ [Oligonucleotide analogue (19)] | 60 | 73 | +9.0 °C | +10.0 °C |  |
| 5′-TXTTX^mCTXT^mCX^mCTX*T-3′ [Oligonucleotide analogue (10)] | 50 | 63 | +3.4 °C | +4.0 °C |  |
| 5′-XTTTX^mCTTX^mCT^mCX^mCT-3′ [Oligonucleotide analogue (11)] | 45 | 59 | +3.0 °C | +4.0 °C |  |
| 5′-XTXTX^mCXTX^mCX^mCX^mCT-3′ [Oligonucleotide analogue (9)] | 59 | > 80 | +3.7 °C | > +5 °C |  |
| 5′-YTYTY^mCYTY^mCY^mCY^mCT-3′ [Oligonucleotide analogue (21)] | 78 | > 80 | +6.4 °C | > +5 °C |  |
